From PubChem BioAssay (NCI)
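Five compound concentrations were applied to cells in 96-well plates for 48 hours; endpoints were derived by simple linear interpolation of the resulting dose-response curve. TGI: total growth inhibition.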

Columns and labels:
Test in all cases: growth of human tumour cells (NCI), 48 h
A549 NSCLC = tested on: A549 NSCLC
BT-549 breast = tested on: BT-549 breast
HOP-92 NSCLC = tested on: HOP-92 NSCLC
OVCAR-8 ovarian = tested on: OVCAR-8 ovarian
PC-3 prostate = tested on: PC-3 prostate
SK-MEL-5 melanoma = tested on: SK-MEL-5 melanoma
T-47D breast = tested on: T-47D breast
TK-10 renal = tested on: TK-10 renal
U251 CNS = tested on: U251 CNS
UO-31 renal = tested on: UO-31 renal

Measured: TGI

O=C1CSC(c2ccc(Cl)cc2)N1c1ccc(-n2c(-c3ccccc3)nc3ccccc3c2=O)cc1 (stereo not given)
> 100 µM: all assays above
